# Reference: patent publication US11484567B2, “Use of immune suppressive domains as medicaments” (iSD Immunotech ApS, priority 2013, dated 2022)
# What was measured:
# BMDCs = test: Cytokine release (type I IFN bioassay) from LPS-treated BMDCs pretreated with peptide; type: cell-based
# STING [1] = target: T1, STING (Homo sapiens, UniProt Q86WV6); test: Pulldown of HA-tagged STING C-terminal domain with biotinylated INF ISD peptide and streptavidin coated beads, immunoblot; type: binding
# T1 construct: the C-terminal domain of STING was expressed with a HA-tag in HEK293 cells; expressed in transfected cells; host or cells: HEK293
# T1 sequence (Q86WV6 162-379): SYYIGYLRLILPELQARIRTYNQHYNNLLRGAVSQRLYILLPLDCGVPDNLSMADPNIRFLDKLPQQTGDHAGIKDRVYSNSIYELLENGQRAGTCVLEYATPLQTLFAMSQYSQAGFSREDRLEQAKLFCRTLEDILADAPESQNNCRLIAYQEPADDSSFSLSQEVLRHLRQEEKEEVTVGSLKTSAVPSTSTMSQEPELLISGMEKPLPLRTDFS
# STING [2] = test: as above; type: binding
sequence,measurement,setting,value
GLFGAIAGFIENGWEGCGGEKEKEK [INF ISD peptide],amounts of cytokines released by cells treated with LPS (FIG. 9),"BMDCs; BMDCs treated with LPS for 16 hours, pretreated with peptide, supernatants analyzed for type I IFN using bioassay",significantly lower amounts of cytokines
same,release of cytokines including pro-inflammatory cytokines such as TNFalpha and IL-6,"BMDCs; pretreatment of cells with peptide, LPS (Example 3)",decrease in the release of cytokines
same,pulldown of STING deletion mutant DN5 (162-N),STING [1],readily pulled down
same,pulldown of wt STING,STING [2],readily pulled down
